Assay results taken from paper PMC7753147, “High-throughput determination of protein affinities using unmodified peptide libraries in nanomolar scale” (iScience, 2020).

Legend:
gephE = assay: µSPOT peptide microarray binding assay with recombinant gephE
native geph = assay: µSPOT peptide microarray binding assay with native geph from mouse brain lysate
FL-geph = assay: µSPOT peptide microarray binding assay with full-length geph
[1] = µSPOT full positional scan of GlyRβ 15-mer DLRSNDFSIVGSLPR, intensity normalised to wild-type sequence (= 1)
[2] = µSPOT full positional scan of GlyRβ 15-mer DLRSNDFSIVGSLPR, native geph, intensity normalised to wild-type sequence (= 1)
[3] = µSPOT peptide microarray, GlyRβ full positional scan, recombinant gephE, intensity normalised to wild-type sequence DLRSNDFSIVGSLPR (=1)
[4] = µSPOT peptide microarray, GlyRβ full positional scan, native geph from mouse brain lysate, intensity normalised to wild-type sequence DLRSNDFSIVGSLPR (=1)
[5] = µSPOT peptide microarray, GlyRβ full positional scan, intensity normalised to wild-type sequence DLRSNDFSIVGSLPR (=1)

Sequence	gephE Binding Intensity [norm.] (gephE; [1])	Native geph Binding Intensity [norm.] (native geph; [2])	Fl-geph Binding Intensity [norm.] (FL-geph; [1])	gephE Binding Intensity [norm.] (gephE; [3])	Native geph Binding Intensity [norm.] (native geph; [4])	Fl-geph Binding Intensity [norm.] (FL-geph; [5])
DLRSNDFSIVGSKPR [GlyRβ_Full_Positional_Scan_254]	0.59	0.24	0.68	–	–	–
DLRDNDFSIVGSLPR [GlyRβ_Full_Positional_Scan_070]	–	–	–	0.95	1.34	1.09
DLRSNDFSIVGSLPR [GlyRβ_Full_Positional_Scan_099]	–	–	–	1	1	1
DLRSQDFSIVGSLPR [GlyRβ_Full_Positional_Scan_100]	–	–	–	0.96	0.97	1.01
DLRSNDFSIVCSLPR [GlyRβ_Full_Positional_Scan_217, GlyR β 414-428 variant G424C]	0.43	0.23	0.45	–	–	–
DLRSNDFLIVGSLPR [GlyRβ_Full_Positional_Scan_144, GlyR β 414-428 variant S421L]	–	–	–	0.6	0.2	0.54
DLRSNDDSIVGSLPR [GlyRβ_Full_Positional_Scan_130, GlyR β 414-428 variant F420D]	–	–	–	0.45	0.26	0.38
DLRSNDFSIVESLPR [GlyRβ_Full_Positional_Scan_211, GlyR β 414-428 variant G424E]	–	–	–	0.23	0.14	0.18
DLRSNDFSIVGSLPA [GlyRβ_Full_Positional_Scan_281]	0.87	0.81	0.9	–	–	–
DLRSNDFSIVYSLPR [GlyRβ_Full_Positional_Scan_209, GlyR β 414-428 variant G424Y]	–	–	–	0.41	0.2	0.48
DLKSNDFSIVGSLPR [GlyRβ_Full_Positional_Scan_054]	–	–	–	1.01	1.21	1.24
DLRSNDFSIVGSLPM [GlyRβ_Full_Positional_Scan_298]	0.9	1.42	1.34	–	–	–
DLRSNDFSIVGSLYR [GlyRβ_Full_Positional_Scan_269]	0.78	0.59	0.71	–	–	–
DLRSNDFSSVGSLPR [GlyRβ_Full_Positional_Scan_175, GlyR β 414-428 variant I422S]	–	–	–	0.52	0.27	0.87
QLRSNDFSIVGSLPR [GlyRβ_Full_Positional_Scan_020]	–	–	–	1.19	1.2	1.16
DLRINDFSIVGSLPR [GlyRβ_Full_Positional_Scan_063]	–	–	–	0.92	1.05	0.91
DLRVNDFSIVGSLPR [GlyRβ_Full_Positional_Scan_066]	–	–	–	0.91	0.98	0.9
DLRSNDFSNVGSLPR [GlyRβ_Full_Positional_Scan_179, GlyR β 414-428 variant I422N]	–	–	–	0.6	0.42	0.57
DDRSNDFSIVGSLPR [GlyRβ_Full_Positional_Scan_030]	–	–	–	1.07	0.9	1.26
DLRSNDFSIVGDLPR [GlyRβ_Full_Positional_Scan_230]	0.52	0.45	0.77	–	–	–
GLRSNDFSIVGSLPR [GlyRβ_Full_Positional_Scan_002]	–	–	–	1.01	0.75	1.03
DLRSLDFSIVGSLPR [GlyRβ_Full_Positional_Scan_084]	–	–	–	0.92	0.69	0.86
DLRSNDFSIVGSLNR [GlyRβ_Full_Positional_Scan_279]	0.71	0.67	0.77	–	–	–
DLRSKDFSIVGSLPR [GlyRβ_Full_Positional_Scan_094]	–	–	–	0.92	0.66	0.79
DYRSNDFSIVGSLPR [GlyRβ_Full_Positional_Scan_029]	–	–	–	0.95	0.73	0.84
DLRSNDFSIVGSLPH [GlyRβ_Full_Positional_Scan_293]	0.96	0.92	1.05	–	–	–
DLTSNDFSIVGSLPR [GlyRβ_Full_Positional_Scan_056]	–	–	–	0.96	1.38	1.18

Continued, values first:

gephE Binding Intensity [norm.] (gephE; [1])	Native geph Binding Intensity [norm.] (native geph; [2])	Fl-geph Binding Intensity [norm.] (FL-geph; [1])	gephE Binding Intensity [norm.] (gephE; [3])	Native geph Binding Intensity [norm.] (native geph; [4])	Fl-geph Binding Intensity [norm.] (FL-geph; [5])	Sequence
–	–	–	1.04	0.69	0.91	SLRSNDFSIVGSLPR [GlyRβ_Full_Positional_Scan_015]
0.85	0.88	0.87	–	–	–	DLRSNDFSIVGSCPR [GlyRβ_Full_Positional_Scan_257]
0.69	0.74	1.01	–	–	–	DLRSNDFSIVGVLPR [GlyRβ_Full_Positional_Scan_226]
0.84	0.85	1.08	–	–	–	DLRSNDFSIVGSSPR [GlyRβ_Full_Positional_Scan_255]
–	–	–	0.51	0.35	0.46	DLRSNDSSIVGSLPR [GlyRβ_Full_Positional_Scan_135, GlyR β 414-428 variant F420S]
–	–	–	0.9	0.72	0.75	DLRSHDFSIVGSLPR [GlyRβ_Full_Positional_Scan_093]
–	–	–	0.48	0.43	0.66	DLRSNDQSIVGSLPR [GlyRβ_Full_Positional_Scan_140, GlyR β 414-428 variant F420Q]
0.69	0.66	0.91	–	–	–	DLRSNDFSIVGSGPR [GlyRβ_Full_Positional_Scan_242]
0.8	0.9	1.01	–	–	–	DLRSNDFSIVGHLPR [GlyRβ_Full_Positional_Scan_233]
–	–	–	0.95	1.22	0.9	DCRSNDFSIVGSLPR [GlyRβ_Full_Positional_Scan_037]
–	–	–	0.24	0.13	0.25	DLRSNDFSEVGSLPR [GlyRβ_Full_Positional_Scan_171, GlyR β 414-428 variant I422E]
0.62	0.36	0.67	–	–	–	DLRSNDFSIVGSLCR [GlyRβ_Full_Positional_Scan_277]
–	–	–	0.74	0.34	0.78	DLRSNFFSIVGSLPR [GlyRβ_Full_Positional_Scan_107]
–	–	–	0.5	0.16	0.63	DLRSNDFSIKGSLPR [GlyRβ_Full_Positional_Scan_194, GlyR β 414-428 variant V423K]
–	–	–	0.92	0.88	0.99	DLRNNDFSIVGSLPR [GlyRβ_Full_Positional_Scan_079]
–	–	–	1.1	0.72	1.16	PLRSNDFSIVGSLPR [GlyRβ_Full_Positional_Scan_005]
–	–	–	0.43	0.17	0.42	DLRSNDFSIVVSLPR [GlyRβ_Full_Positional_Scan_206, GlyR β 414-428 variant G424V]
